Assay results published in patent publication US8968663B2, “Monitoring membrane-bound proteins” (University of Utah Research Foundation, priority 2011, dated 2015).

Legend:
[1] = test system: ShakerB-IR K^+ ion channel; assay: Two-electrode voltage clamp of ShakerB-IR expressing Xenopus oocytes with Cu^2+ applied as ion channel blocker; type: cell-based; conditions: ~120 μM Cu^2+ pipetted above the cell, FIG. 10
Procedure: Complementary deoxyribonucleic acid (cDNA) for the Shaker ion-channel variant ShakerB-IR (inactivation removed) was transformed in E. coli and linearized using the restriction enzyme, Kpn-1. cRNA was transcribed from linearized DNA, and 32 nL/cell of the transcribed RNA was injected into Xenopus oocytes. Recordings were done 24-48 hours after injection to allow time for protein expression. Currents were measured using two-microelectrode voltage clamp to verify ShakerB-IR ion channel expression. Oocytes were stored in Superbarths Oocyte media (88 mM NaCl, 1 mM KCl, 0.41 mM CaCl2, 0.33 mM Ca(NO3)2, 1 mM MgSO4, 2.4 mM NaHCO3, 10 mM HEPES, 1 mM pyruvate and 50 μg/ml gentamicin, titrated using NaOH to a pH of 7.4) at 17° Celsius (C.). Oocytes were also bathed in this media during RF recording.
(§1) Oocytes were positioned into a recording chamber consisting of an RF belt electrode surrounding the meridian of the cell and a ground electrode located in the oocyte media above an axial pole of the cell. Two glass micropipettes (1-3 MΩ access resistance) filled with 3M KCL were carefully guided into the oocyte using an upright microscope (Zeiss AxioTech). One micropipette was attached to a voltage-measuring headstage (HS-2Ax1 LU, Molecular Devices, Sunnyvale, Calif.) and the second micropipette was attached to a current-injecting headstage (HS-2Ax10MGU, Molecular Devices, Sunnyvale, Calif.). […]

[2] = test system: control oocytes (endogenous protein response); assay: RF (500 kHz) impedance interrogation of control Xenopus oocytes under voltage clamp; type: cell-based; conditions: ~120 μM Cu^2+, 500 kHz RF signal, FIG. 10
Text: as §1
(§2) RF voltage measurements were sampled through a head-stage voltage-follower operational amplifier (OPA356, Texas Instruments, Dallas, Tex.). The RF signal was high pass filtered (100 kHz, 48 DB/oct Bessel HPF; SIM965, Stanford Research Systems, Sunnyvale, Calif.) and detected by a lock-in amplification (0 integration time, SR844, Stanford Research Systems, Sunnyvale, Calif.). The quadrature outputs on the lock-in amplifier detected changes on the order of 10 microvolts, and time delays caused by the lock-in amplifier and HPF were accounted for prior to data analysis. TEVC data (command voltage, sensed voltage, measured current) and RF data (quadrature outputs from the lock-in amplifier) were sampled every 20 μs using a 16 bit A-D converter (ITC-18, HEKA Inst. Bellmore, N.Y.). […]

[3] = test system: ShakerB-IR K^+ ion channel; assay: RF (500 kHz) impedance interrogation of ShakerB-IR expressing Xenopus oocytes under voltage clamp; type: cell-based; conditions: ~120 μM Cu^2+, 500 kHz RF signal, FIG. 10
Procedure: Complementary deoxyribonucleic acid (cDNA) for the Shaker ion-channel variant ShakerB-IR (inactivation removed) was transformed in E. coli and linearized using the restriction enzyme, Kpn-1. cRNA was transcribed from linearized DNA, and 32 nL/cell of the transcribed RNA was injected into Xenopus oocytes. Recordings were done 24-48 hours after injection to allow time for protein expression. Currents were measured using two-microelectrode voltage clamp to verify ShakerB-IR ion channel expression. […]
as §2

[4] = test system: ShakerB-IR K^+ ion channel; conditions: extracellular application; stated as known; cited from earlier work

[Cu+2] [Cu^2+]
effect on ShakerB-IR K^+ current [1]: blocked the ShakerB-IR K^+ current
effect on charge displacement within the RF electric field in control cells [2]: not observed to the same extent in control cells
effect on charge displacement within the RF electric field (voltage-dependent RF impedance) [3]: increased charge displacement within the RF electric field
known effect of extracellular Cu^2+ on K^+ conductance [4]: shift the K^+ conductance to more depolarized levels
